{"source": "patent US9828351B2", "about": "“Enzyme interacting agents” (MONASH UNIVERSITY, priority 2014, dated 2017)", "assay_type_in_all_cases": "cell-based", "key": {"[1]": {"target": "T1, Dihydroceramide Desaturase-1 (Des1) (Homo sapiens, UniProt O15121)", "T1 construct": "These modifications included the use of parental Jurkat cells; endogenous in cells; host or cells: parental Jurkat cells", "T1 sequence (O15121 1-323)": "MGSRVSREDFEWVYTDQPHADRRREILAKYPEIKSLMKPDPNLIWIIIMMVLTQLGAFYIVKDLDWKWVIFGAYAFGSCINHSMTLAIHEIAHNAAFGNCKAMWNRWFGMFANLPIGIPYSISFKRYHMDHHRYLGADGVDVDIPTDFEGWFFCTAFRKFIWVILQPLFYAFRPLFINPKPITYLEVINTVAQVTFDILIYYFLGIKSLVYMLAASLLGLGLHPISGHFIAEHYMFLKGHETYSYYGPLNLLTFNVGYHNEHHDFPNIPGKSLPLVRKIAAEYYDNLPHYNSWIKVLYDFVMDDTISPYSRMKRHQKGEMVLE", "assay": "Dihydroceramide desaturase-1 (Des1) activity by HPLC in intact Jurkat cells labeled with DhCer-C6-NBD", "settings": "intact Jurkat cells; read-out: Des 1 IC50", "protocol": "Measurement of Dihydroceramide Desaturase-1 (Des1) Activity:\nThese modifications included the use of parental Jurkat cells, 0.5% serum in the culture media, and cell harvesting via centrifugation at 500×g to maximise ceramide extraction. Extracted samples (50 ul) were analysed on a Waters HPLC coupled to a fluorescence detector using a 30 cm C18 reverse-phase column eluted with 1 ml/min 20% H2O and 80% acetonitrile, both with a 0.1% of trifluoroacetic acid."}, "[2]": {"test_system": "PC3 prostate cancer cell lines", "assay": "Anticancer activity in PC3 cell line, CellTitre AQueous One cell viability assay", "settings": "Homo sapiens, PC-3; concentration required to inhibit cell proliferation by 50%; 72 hours", "protocol": "Measurement of Anticancer Activity in PC3 Cell Line Assays\nPC3 prostate cancer cell lines were cultured in DMEM (containing 10% fetal calf serum and penicillin-streptomycin).\nBefore treatment with drug compounds, cells were plated at 2,500 cells/well in 96 well plates and incubated at 37° C. with 5% CO2 in a humidified incubator for 24 hours prior. Cells were only plated in columns 3-10 and rows C—F to ensure uniform humidity and warmth across all wells. The remaining wells were filled with 100 μL of phosphate buffered saline.\nDrug stock solutions (50 or 10 mM) were diluted×1000 in media to a final concentration of either 50 μM or 10 μM with a DMSO vehicle concentration of 0.1%.\nCell culture supernatants were aspirated and replaced with drug containing media. Drug treatments were performed in duplicate wells, while potential plate layout-specific variation in cell growth was accounted for by addition of a vehicle control (0.1% DMSO).\nCells were then incubated with drug compounds at 37° C. with 5% CO2 in a humidified incubator for 72 hours prior to assay.\nMedia was diluted with CellTitre AQueous One Solution (Promega, Australia; Cat # G3580) according to manufacturer's instructions to produce a final concentration of 317 μg/mL.\nCell culture supernatants were then aspirated from wells and replaced with 100 μL of CellTitre solution. Triplicate cell-free control wells containing only CellTitre solution were also included in each assay.\nCells were then incubated at 37° C. with 5% CO2 in a humidified incubator for 1 hour at which time absorbance was read at 490 nm with an EnVision microplate reader (Perkin Elmer, Australia).\nWhen analysing data, background absorbance (taken from cell-free control wells) was subtracted from each reading. […] For each drug concentration the mean (±SEM) is calculated and graphed using GraphPad Prism (version 5). A sigmoidal curved is fitted to the data and used to calculate the IC50 of each compound."}, "[3]": {"target": "T2, SphK1a in Flpln-SphK1a cells (Flp-In T-Rex HEK293) (Homo sapiens, UniProt Q9NYA1)", "T2 construct": "expressed in transfected cells; host or cells: Flp-In T-Rex HEK293 cells, doxycycline-induced", "T2 sequence (Q9NYA1 whole entry)": "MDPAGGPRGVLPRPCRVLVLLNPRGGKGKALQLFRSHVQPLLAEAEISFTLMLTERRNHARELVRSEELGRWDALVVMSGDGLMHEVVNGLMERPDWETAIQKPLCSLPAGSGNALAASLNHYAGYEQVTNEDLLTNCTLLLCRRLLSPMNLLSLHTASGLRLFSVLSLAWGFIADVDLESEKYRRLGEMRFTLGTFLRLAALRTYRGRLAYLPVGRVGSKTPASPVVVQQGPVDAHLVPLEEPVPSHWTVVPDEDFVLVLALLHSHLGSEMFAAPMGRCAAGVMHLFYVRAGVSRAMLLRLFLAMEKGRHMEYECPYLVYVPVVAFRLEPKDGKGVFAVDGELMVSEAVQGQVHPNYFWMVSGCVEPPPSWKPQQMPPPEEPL", "assay": "SphK1 proteasomal degradation study (immunoblotting)", "settings": "10 μM test compound, 24 h", "protocol": "These studies were performed as previously described for the drug SKI-II (C. Loveridge et al. J. Biol. Chem. 2010, 285, 38891). […] After 24 h cells were treated with 10 μm test compound, 10 μm MG132, or both. DMSO was used as the vehicle control. After a further 24 h, cells were harvested, lysed, and subjected to SDS-PAGE and immunoblotting with anti-FLAG (Sigma), anti-ERK1/2 (Promega), or anti-a-tubulin (Abcam) antibodies."}}, "note": "pIC50: −log10 of the molar value."}
{"smiles": "Oc1ccc(Nc2nc(-c3ccc(Cl)cc3)cs2)cc1", "note": "[SKI-II, reference compound]", "values": [{"measurement": "pIC50", "setting": "[1]", "value": "6.00 to 7.00"}, {"measurement": "pIC50", "setting": "[2]", "value": "5.00 to 6.00"}, {"measurement": "% SphK1a degradation at 10 μM", "setting": "[3]", "value": 100, "unit": "%"}]}
